# From US11274085B2, “3-aryl-bicyclic [4,5,0] hydroxamic acids as HDAC inhibitors” (Valo Health, Inc., priority 2015, dated 2022)
# pIC50: −log10 of the molar value.
# Target: T1, human recombinant HDAC6 (Homo sapiens, UniProt Q9UBN7)
# T1 sequence (Q9UBN7 1-1215): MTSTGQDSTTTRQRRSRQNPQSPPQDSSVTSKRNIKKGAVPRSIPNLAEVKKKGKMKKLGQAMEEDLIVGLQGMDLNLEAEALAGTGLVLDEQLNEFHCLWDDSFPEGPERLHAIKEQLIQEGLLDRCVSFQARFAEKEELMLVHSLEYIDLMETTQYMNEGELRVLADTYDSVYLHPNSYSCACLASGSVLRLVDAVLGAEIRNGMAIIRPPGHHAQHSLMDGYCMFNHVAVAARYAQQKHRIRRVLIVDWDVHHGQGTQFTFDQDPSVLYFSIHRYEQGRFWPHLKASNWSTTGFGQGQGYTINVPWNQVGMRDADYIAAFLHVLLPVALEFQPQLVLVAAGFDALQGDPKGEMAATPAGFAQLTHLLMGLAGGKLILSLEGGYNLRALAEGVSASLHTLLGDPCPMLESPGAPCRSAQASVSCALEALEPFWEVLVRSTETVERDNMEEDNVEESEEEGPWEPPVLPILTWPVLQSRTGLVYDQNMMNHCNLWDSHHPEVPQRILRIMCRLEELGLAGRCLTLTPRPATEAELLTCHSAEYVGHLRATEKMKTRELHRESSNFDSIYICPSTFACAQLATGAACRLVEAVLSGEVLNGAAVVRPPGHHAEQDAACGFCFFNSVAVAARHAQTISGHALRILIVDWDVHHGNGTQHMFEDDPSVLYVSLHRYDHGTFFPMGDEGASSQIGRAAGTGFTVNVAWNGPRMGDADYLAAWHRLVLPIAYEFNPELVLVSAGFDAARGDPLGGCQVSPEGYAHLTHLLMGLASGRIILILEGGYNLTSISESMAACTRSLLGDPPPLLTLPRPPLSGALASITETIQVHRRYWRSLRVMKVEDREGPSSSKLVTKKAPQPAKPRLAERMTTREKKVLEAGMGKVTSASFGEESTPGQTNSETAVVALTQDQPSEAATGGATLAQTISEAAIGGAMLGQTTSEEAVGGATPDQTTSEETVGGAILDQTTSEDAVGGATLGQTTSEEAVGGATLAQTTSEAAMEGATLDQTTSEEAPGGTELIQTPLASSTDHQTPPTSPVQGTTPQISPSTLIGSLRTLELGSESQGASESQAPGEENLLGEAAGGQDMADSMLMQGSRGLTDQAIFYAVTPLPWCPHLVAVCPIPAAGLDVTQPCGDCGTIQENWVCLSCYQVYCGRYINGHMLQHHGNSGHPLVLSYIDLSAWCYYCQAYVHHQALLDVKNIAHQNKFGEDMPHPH
# Assay: In vitro histone deacetylase assay: enzymatic HDAC6 electrophoretic mobility shift assay
# Assay type: biochemical
# Conditions: full length human recombinant HDAC6 1 nM, 2 μM peptide substrate RHKK(Ac)-NH2, 25° C.; read-out: Inhibitory Concentration (IC50) against HDAC6, Activity Range
# Description: The enzymatic HDAC6 assay was performed using electrophoretic mobility shift assay. […] The enzymatic reactions were assembled in 384 well plates and in a total volume of 25 μL in a reaction buffer comprising: 100 mM HEPES, pH 7.5, 25 mM KCl, 0.1% bovine serum albumin, 0.01% Triton X-100, 1% DMSO (from compounds), 2 μM of the fluorescently labeled peptide substrate, and enzyme. The enzyme was added at a final concentration of 1 nM and the peptide substrate RHKK(Ac)—NH2 was used. The compounds were tested at 12 concentrations spaced by 3× dilution intervals. Negative control samples (0%-inhibition in the absence of inhibitor) and positive control samples (100%-inhibition) were assembled in replicates of four in each assay plate. The reactions were incubated at 25° C. and quenched by the addition of 45 μL of termination buffer (100 mM HEPES, pH 7.5, 0.01% Triton X-100, 0.05% SDS).
# The terminated assay plates were analyzed on LabChip® 3000 microfluidic electrophoresis instrument (Perkin Elmer/Caliper Life Sciences). The fluorescence intensity of the electrophoretically separated de-acetylated product and substrate peptide was measured. Activity in each sample was determined as the product to sum ratio (PSR):P/(S+P), where P is the peak height of the product peptide and S is the peak height of the substrate peptide. Percent inhibition (Pinh) is determined using the following equation: Pinh=(PSR0%−PSRinh)/(PSR0%−PSR100%)*100, where PSRinh is the product sum ratio in the presence of inhibitor, PSR0% is the average product sum ration in the absence of inhibitor, and PSR100% is the average product sum ratio in 100%-inhibition control samples. The IC50 values of inhibitors were determined by fitting the %-inhibition curves with 4 parameter dose-response model using XLfit 4 software.
# As set forth in Table 4, below, IC50 values are defined as follows: IC50≤0.1 μM (+++); IC50>0.1 μM and ≤0.5 μM (++); IC50>0.5 μM (+).
row,pIC50,SMILES
1,≥ 7.00,"O=C(NO)c1ccc2c(c1)OC[C@H](c1cccnc1)N(C(=O)N1CCOCC1)C2 (single isomer, unassigned)"
2,6.30 to 7.00,"O=C(NO)c1ccc2c(c1)OC[C@@H](c1ccccc1)N(c1ccccc1)C2 [(R)-N-hydroxy-3,4-diphenyl-2,3,4,5-tetrahydrobenzo[f][1,4]oxazepine-8-carboxamide]"
3,≥ 7.00,"O=C(NO)c1ccc2c(c1)OC[C@H](c1cccc(Cl)c1)N(C(=O)N1CCOCC1)C2 [(S)-3-(3-chlorophenyl)-N-hydroxy-4-(morpholine-4-carbonyl)-2,3,4,5-tetrahydrobenzo[f][1,4]oxazepine-8-carboxamide]"
4,≥ 7.00,"CC(=O)N1CCN(C(=O)N2Cc3ccc(C(=O)NO)cc3OC[C@@H]2c2ccccc2)CC1 [(S)-4-(4-acetylpiperazine-1-carbonyl)-N-hydroxy-3-phenyl-2,3,4,5-tetrahydrobenzo[f][1,4]oxazepine-8-carboxamide]"
5,≥ 7.00,"O=C(NO)c1ccc2c(c1)OC[C@H](c1ccccc1)N(C(=O)Nc1ccccc1)C2 [(S)-N8-hydroxy-N4,3-diphenyl-2,3-dihydrobenzo[f][1,4]oxazepine-4,8(5H)-dicarboxamide]"
6,≥ 7.00,"O=C(NO)c1ccc2c(c1)OC[C@H](c1ccccc1)N(C(=O)N1CCCCC1)C2 [(S)-N-hydroxy-3-phenyl-4-(piperidine-1-carbonyl)-2,3,4,5-tetrahydrobenzo[f][1,4]oxazepine-8-carboxamide]"
7,≥ 7.00,"COC1CCN(C(=O)N2Cc3ccc(C(=O)NO)cc3OC[C@@H]2c2ccccc2)CC1 [(S)-N-hydroxy-4-(4-methoxypiperidine-1-carbonyl)-3-phenyl-2,3,4,5-tetrahydrobenzo[f][1,4]oxazepine-8-carboxamide]"
8,≥ 7.00,"CN1CCN(C(=O)N2Cc3ccc(C(=O)NO)cc3OC[C@@H]2c2ccccc2)CC1 [(S)-N-hydroxy-4-(4-methylpiperazine-1-carbonyl)-3-phenyl-2,3,4,5-tetrahydrobenzo[f][1,4]oxazepine-8-carboxamide]"
9,≥ 7.00,"O=C(NO)c1ccc2c(c1)OC[C@H](c1ccc(C(F)(F)F)cc1)N(C(=O)N1CCOCC1)C2 [(S)-N-hydroxy-4-(morpholine-4-carbonyl)-3-(4-(trifluoromethyl)phenyl)-2,3,4,5-tetrahydrobenzo[f][1,4]oxazepine-8-carboxamide]"
10,≥ 7.00,"Cc1ccc([C@H]2COc3cc(C(=O)NO)ccc3CN2C(=O)N2CCOCC2)cc1 [(S)-N-hydroxy-4-(morpholine-4-carbonyl)-3-(p-tolyl)-2,3,4,5-tetrahydrobenzo[f][1,4]oxazepine-8-carboxamide]"
11,≥ 7.00,"O=C(NO)c1ccc2c(c1)OC[C@H](c1ccccc1)N(C(=O)N1CCOCC1)C2 [(S)-N-hydroxy-4-(morpholine-4-carbonyl)-3-phenyl-2,3,4,5-tetrahydrobenzo[f][1,4]oxazepine-8-carboxamide]"
12,≥ 7.00,"CN1Cc2ccc(C(=O)NO)cc2OC[C@@H]1c1ccccc1 [(S)-N-hydroxy-4-methyl-3-phenyl-2,3,4,5-tetrahydrobenzo[f][1,4]oxazepine-8-carboxamide]"

# The remaining lines, values behind:
row,SMILES,pIC50
1,"O=C(NO)c1ccc2c(c1)OC[C@@H](c1cccnc1)N(C(=O)N1CCOCC1)C2 (single isomer, unassigned)",< 6.30
2,"COc1ccc(CN2Cc3ccc(C(=O)NO)cc3OC[C@H]2c2ccccc2)cc1 [(R)-N-hydroxy-4-(4-methoxybenzyl)-3-phenyl-2,3,4,5-tetrahydrobenzo[f][1,4]oxazepine-8-carboxamide]",≥ 7.00
3,"CN1Cc2ccc(C(=O)NO)cc2OC[C@H]1c1ccccc1 [(R)-N-hydroxy-4-methyl-3-phenyl-2,3,4,5-tetrahydrobenzo[f][1,4]oxazepine-8-carboxamide]",≥ 7.00
4,"O=C(NO)c1ccc2c(c1)OC[C@H](c1ccc(Cl)cc1)N(C(=O)N1CCOCC1)C2 [(S)-3-(4-chlorophenyl)-N-hydroxy-4-(morpholine-4-carbonyl)-2,3,4,5-tetrahydrobenzo[f][1,4]oxazepine-8-carboxamide]",≥ 7.00
5,"O=C(NO)c1ccc2c(c1)OC[C@H](c1ccc(F)cc1)N(C(=O)N1CCOCC1)C2 [(S)-3-(4-fluorophenyl)-N-hydroxy-4-(morpholine-4-carbonyl)-2,3,4,5-tetrahydrobenzo[f][1,4]oxazepine-8-carboxamide]",≥ 7.00
6,"O=C(NO)c1ccc2c(c1)OC[C@H](c1ccccc1)N(S(=O)(=O)c1ccc(F)cc1)C2 [(S)-4-((4-fluorophenyl)sulfonyl)-N-hydroxy-3-phenyl-2,3,4,5-tetrahydrobenzo[f][1,4]oxazepine-8-carboxamide]",6.30 to 7.00
7,"O=C(NO)c1ccc2c(c1)OC[C@H](c1ccccc1)N(C(=O)NC1CCCCC1)C2 [(S)-N4-cyclohexyl-N8-hydroxy-3-phenyl-2,3-dihydrobenzo[f][1,4]oxazepine-4,8(5H)-dicarboxamide]",≥ 7.00
8,"O=C(NO)c1ccc2c(c1)OC[C@H](c1ccccc1)N(C(=O)Nc1cccnc1)C2 [(S)-N8-hydroxy-3-phenyl-N4-(pyridin-3-yl)-2,3-dihydrobenzo[f][1,4]oxazepine-4,8(5H)-dicarboxamide]",≥ 7.00
9,"O=C(NO)c1ccc2c(c1)OC[C@H](c1ccccc1)N(C(=O)Nc1ccncc1)C2 [(S)-N8-hydroxy-3-phenyl-N4-(pyridin-4-yl)-2,3-dihydrobenzo[f][1,4]oxazepine-4,8(5H)-dicarboxamide]",≥ 7.00
10,"O=C(NO)c1ccc2c(c1)OC[C@H](c1ccccc1)N(C(=O)NC1CCOCC1)C2 [(S)-N8-hydroxy-3-phenyl-N4-(tetrahydro-2H-pyran-4-yl)-2,3-dihydrobenzo[f][1,4]oxazepine-4,8(5H)-dicarboxamide]",≥ 7.00
11,"CN(C)C(=O)N1Cc2ccc(C(=O)NO)cc2OC[C@@H]1c1ccccc1 [(S)-N8-hydroxy-N4,N4-dimethyl-3-phenyl-2,3-dihydrobenzo[f][1,4]oxazepine-4,8(5H)-dicarboxamide]",≥ 7.00
12,"O=C(NO)c1ccc2c(c1)OC[C@H](c1ccccc1)N(c1ccccc1)C2 [(S)-N-hydroxy-3,4-diphenyl-2,3,4,5-tetrahydrobenzo[f][1,4]oxazepine-8-carboxamide]",≥ 7.00
13,"O=C(NO)c1ccc2c(c1)OC[C@H](c1ccccc1)N(C(=O)N1CCCC1)C2 [(S)-N-hydroxy-3-phenyl-4-(pyrrolidine-1-carbonyl)-2,3,4,5-tetrahydrobenzo[f][1,4]oxazepine-8-carboxamide]",≥ 7.00
14,"COc1ccc(CN2Cc3ccc(C(=O)NO)cc3OC[C@@H]2c2ccccc2)cc1 [(S)-N-hydroxy-4-(4-methoxybenzyl)-3-phenyl-2,3,4,5-tetrahydrobenzo[f][1,4]oxazepine-8-carboxamide]",≥ 7.00
